Measurements as given in PubChem BioAssay AID540269 (Sanford-Burnham Center for Chemical Genomics, 2011).
Active and inactive are the calls of the source. How the calls were made is not given here.

Each compound was assayed against glucose-6-phosphate dehydrogenase-6-phosphogluconolactonase (Plasmodium falciparum 3D7) (assay: inhibition of P. falciparum G6PD activity – biochemical, kinetic NADPH detection, orthogonal assay, dose response (AID 540269)). Conditions: purified PfG6PD-6PGL.

| Structure (SMILES) | IC50 |
| --- | --- |
| O=C(CNC(=O)c1cccs1)OCC(=O)c1ccc([N+](=O)[O-])cc1 | > 80 µM (inactive) |
| CC1(C)Nc2ccc(O)cc2-c2c1ssc2=S | > 80 µM (inactive) |
| CN(C)S(=O)(=O)c1cccc(-n2sc3ccccc3c2=O)c1 | 12.8 µM |
| COc1cc(NCCCn2cnc(C(=O)Nc3ccc(C)c(C)c3)n2)cc(OC)c1OC | > 80 µM (inactive) |
| COc1ccc(S(=O)(=O)/N=C2\C=C(Nc3ccc(O)cc3)C(=O)c3ccccc32)cc1 | > 80 µM (inactive) |
| COCc1cc(=O)n2[nH]c(C(C)(C)C)cc2n1 | 43.2 µM |
| CCOC(=O)CSc1nnc(NC(=O)c2cccc([N+](=O)[O-])c2)s1 | > 80 µM (inactive) |
| COc1c(O)c(O)c2oc(-c3ccccc3)cc(=O)c2c1OC | 66.9 µM |
| Cc1ccccc1OCC(=O)NCC(=O)OCC(=O)c1ccc([N+](=O)[O-])cc1 | 67.4 µM |
| Cn1c(-c2sccc2OCc2cccc(C(F)(F)F)c2)n[nH]c1=S | 7.3 µM |
| CCCN1CCc2cccc3c2[C@H]1Cc1ccc(O)c(O)c1-3 | > 80 µM (inactive) |
| Cn1c(=O)c2[nH]c(-c3ccccc3)c(O)c2n(C)c1=O | > 80 µM (inactive) |
| COc1ccc(C2(CNC(=O)c3ccc(OC)c([N+](=O)[O-])c3)CCCCC2)cc1OC | > 80 µM (inactive) |
| O=C(Nc1ccc(N2CCCC2)cc1)c1cccc(-c2cc3ccccc3oc2=O)c1 | > 80 µM (inactive) |
| CN1CC[C@@]2(C)c3cc(O)ccc3N(C)[C@@H]12 | 46.7 µM |
| CC1(OC(=O)C2CCCC2)C(=O)C=C2C=C(c3ccsc3)N(Cc3ccc4c(c3)OCO4)C=C2C1=O (centres undefined) | > 80 µM (inactive) |
| COC1=C(Br)C(=O)c2nc(C)ccc2C1=O | > 80 µM (inactive) |
| Cn1c(=O)[nH]c(=O)c2c1[nH]c(=S)n2CCCc1ccccc1 | 43.7 µM |
| Cc1ccc(/C=C/C(=O)NCc2ccc(S(N)(=O)=O)cc2)o1 | > 80 µM (inactive) |
| CC1=CC(C)(C)Nc2ccc(OC(=O)CN3C(=O)c4cccc5cccc(c45)C3=O)cc21 | 76.9 µM |
| Nc1ccc(N(CCO)CCO)cc1 | > 80 µM (inactive) |
| CN1CCc2cccc3c2[C@H]1Cc1ccc(O)c(O)c1-3 | > 80 µM (inactive) |
| Nn1c(SCC(=O)Nc2cccnc2Cl)nnc1-c1ccccc1 | > 80 µM (inactive) |
| CC(=O)Nc1ccc2c(c1)Cc1cc(N3C(=O)C=CC3=O)ccc1-2 | 27.2 µM |
| O=C(Cn1sc2ccccc2c1=O)Nc1ccccc1 | 14.3 µM |
| COc1cccc(-c2c(C(=O)N/N=C/c3ccc(C)s3)nnn2-c2nonc2N)c1 | 53.5 µM |
| CCCCOc1ccc(Cc2n[nH]c(=S)n2N)cc1 | > 80 µM (inactive) |
| O=C(Nc1nnc(C2CC2)s1)c1ccc(Cl)nc1 | 70.1 µM |
| CCN(CC)c1ccc(C(=C2C=CC(=[N+](CC)CC)C=C2)c2ccccc2)cc1 | > 80 µM (inactive) |
